Experimental data reported in patent US11913031B2, “Method to reproduce circadian rhythms on a microfluidic chip” (Yissum Research Development Company of the Hebrew …, priority 2017, dated 2024).

Legend:
[1] = test system: HeLa cells; assay: Acetaminophen loss of mitochondrial respiration repeated in HeLa cells; format: cell-based
[2] = test system: liver; details: Table 4 compound list, toxicological end-point; cited from earlier work
[3] = test system: HepG2/C3A cells; format: cell-based
From the text: FIGS. 11A-E—FIG. 11A—System schematic. FIG. 11B—Oxygen-quenched decay causes phase shift between the intensity-modulated excitation and emission light. Two-superimposed frequencies were used to screen out background interference. FIG. 11C—Fluorescence image of HepG2/C3A cells and sensor particles after immobilization in a collagen matrix.
Real-time focus independent measurement of oxygen uptake in microfluidic bioreactor: Oxygen uptake is a critical measurement of mitochondrial function and metabolic activity^35, 36. However, electrochemical electrodes require frequent re-calibration, while optical sensors are affected by small changes in focus, cell migration and stage movement, making them unreliable for real time measurements of oxygen uptake. Therefore, the present inventor designed an optical system in which organoids are embedded with nanoprobes containing RuP dye and excited at 532 nm (FIGS. 11A-E). Oxygen is a quencher of RuP phosphorescence, leading to a decrease in decay time. Importantly, decay time is not sensitive to changes in probe concentration or excitation intensity (i.e. cell migration, mechanical movement). To measure in real-time, the present inventor used a novel two-frequency sinusoidal intensity-modulated light, allowing us to filter background interference while measuring phase shift in the emitted light.

[4] = test system: E6/E7low 422 hepatocytes; assay: Circadian gene expression (RNA sequencing, JTK_CYCLE) after dexamethasone entrainment, line 422; format: cell-based, human; details: 100 μM (day medium), 24±4 hours period, adjusted p-values less than 0.005
Method: (§1) E6/E7^low Upcyte™ hepatocytes line 422, from a donor, and line 653, from an old donor, were seeded in OSM-free differentiation media as previously described (Levy et al. Nature Biotechnology 2015). Following 5 days of differentiation, cells were synchronized in corticosteroid-free culture medium for 24 hours, followed by high 100 μM Dexamethasone dose (day medium), entraining a circadian cycle. Triplicate cell-lysate and media samples were collected every 4 hours in the following 2 days. RNA was extracted from lysate samples, using NucleoSpin® RNA (Qiagen, Valencia, Calif.) according to manufacturer's direction. RNA were further reverse-transcribed to increase stability of the molecules and tagmented with in-house produced primers containing unique-per-molecule tags along with unique-per-sample tag, using an in-house developed TN5 enzyme. […] Library construction was conducted using Illumina TruSeq RNA Library Prep V2 Kit (Illumina, San Diego, Calif.) according to manufacturer's protocol and sequenced on Illumina NextSeq500 with single-end, 86 bp reads using the High Output V2 Kit. Sequencing reads were filtered to unique reads only and mapped to the UCSC human transcriptome (genome build hg38) using Bowtie 2. Expression levels of all genes were quantified using bedtools. […]

[5] = test system: E6/E7low 653 hepatocytes; assay: Circadian gene expression (RNA sequencing, JTK_CYCLE) after dexamethasone entrainment, line 653; format: cell-based, human; details: 100 μM (day medium), 24±4 hours period, adjusted p-values less than 0.005
Method: as §1

[6] = test system: E6/E7 hepatocytes; assay: Conditional proliferation and EMT of E6/E7 human hepatocytes
[7] = test system: human hepatocytes; assay: Lipid accumulation in human hepatocytes; format: cell-based
Method: The present inventor uses IR-spectroscopy to track this metabolic signature in real time. Wild type and CRY1/2 knockout hepatocytes are perfused with (1) all hormones and factors (FIGS. 17A-B), or with time-average concentrations of (2) melatonin, (3) cortisol, (4) T3, (5) growth hormone, and (6) average temperature. Signature is analysed by IR-spectroscopy every 30 min for 24 hours. IR-spectra is critically compared to intracellular metabolites quantified by LC-MS/MS, as well as specific quantification of triglycerides and bile acids using commercially available kits (FIGS. 16A-F). […] Mechanism is evaluated by systematically perturbing regulators whose activity changed prior to steatosis.

Molecule: CC(=O)Nc1ccc(O)cc1 [Acetaminophen]
- transient loss of mitochondrial respiration in cells that lack CYP2E1 and 3A4 [1]: repeated in HeLa cells
- Toxicity [2]: Apoptosis
- effect on oxygen uptake over time [3]: immediate, reversible, dose-dependent loss of oxygen uptake followed by a slow, irreversible, dose-independent death
- time at which immediate dose-dependent loss of oxygen uptake concludes ([3]; human): 60 min
- time to total cell death (slow dose-independent loss of oxygen uptake) ([3]; human): 3 to 5 days

Molecule: CC(=O)Oc1ccccc1C(=O)O [Aspirin]
- Toxicity [2]: Steatosis

Molecule: CN(C)CCCN1c2ccccc2Sc2ccc(Cl)cc21 [Chlorpromazine]
- Toxicity [2]: Cholestasis

Molecule: C[C@@H]1C[C@H]2[C@@H]3CCC4=CC(=O)C=C[C@]4(C)[C@@]3(F)[C@@H](O)C[C@]2(C)[C@@]1(O)C(=O)CO [Dexamethasone, 9α-fluoro-11β,17α,21-trihydroxy-16α-methylpregna-1,4-diene-3,20-dione]
- genes with circadian expression pattern [4]: 267 genes
- genes with circadian expression pattern [5]: 41 genes

Molecule: Cc1c(C)c2c(c(C)c1O)CCC(C)(COc1ccc(CC3SC(=O)NC3=O)cc1)O2 (centres unmarked) [Troglitazone]
- Toxicity [2]: Cholestasis

Molecule: N#CC(=C(/N)Sc1ccccc1N)/C(C#N)=C(\N)Sc1ccccc1N [U0126]
- Epithelial-to-mesenchymal transition (EMT) [6]: blocked
- epithelial morphology and cell polarization [6]: stabilizing epithelial morphology and cell polarization

Molecule: COc1ccc2[nH]cc(CCNC(C)=O)c2c1 [melatonin, Melatonin]
- lipid accumulation [7]: induce lipid accumulation

B1: Oncostatin m (protein, UniProt P13725 26-221, looked up)
Oncostatin-M: AAIGSCSKEYRVLLGQLQKQTDLMQDTSRLLDPYIRIQGLDVPKLREHCRERPGAFPSEETLRGLGRRGFLQTLNATLGCVLHRLADLEQRLPKAQDLERSGLNIEDLEKLQMARPNILGLRNNIYCMAQLLDNSDTAEPTKAGRGASQPPTPTPASDAFQRKLEGCRFLHGYHRFMHSVGRVFSKWGESPNRSRR
- doubling time of Jak-STAT3 dependent proliferation ([6]; OSM stimulation): 40 h
